Reference: patent publication EP0317105A2, “Phenylalanine derivative and its uses” (AJINOMOTO CO., INC., priority 1987, dated 1989)

Assays:
male ICR mice = test: Toxicity test: oral administration to mice, survival and LD50; format: in vivo; details: for Number of living mice: among 10 head, observation after two weeks; for LD₅₀ values: oral, mice, in words, compared with the known absorption accelerator
Description: A known absorption accelerator, N-(α-fluoro-4-methylcinnamoyl)-L-phenylalanine, and the two absorption accelerators of this invention were each suspended in 0.5% solution of CMC sodium salt at different concentrations, each suspension was orally administered to male ICR mice of 4-week age ( each group consisting of 10 head ), and LD₅₀ values were measured based on the observations after two weeks. The result is summarized in Table 2, in which the figures show the number of living mice when 1.0 g/Kg and 3.0 g/Kg of the compounds were administered.

[1] = Activity test using dogs: oral gelatin capsules of insulin plus absorption accelerator, serum glucose measured; format: in vivo, male beagles; details: 50 U/Kg insulin + 25 mg/Kg sodium salt of absorption accelerator, average of two dogs, compared with N-(α-fluoro-4-methylcinnamoyl)-L-phenylalanine
Description: An absorption acceleration test was conducted using dogs to compare the absorption accelerators of this invention with a known absorption accelerator, N-(α-fluoro-4-methylcinnamoyl)-L-phenylalanine.
Gelatin capsules containing 50 U/Kg insulin and 25 mg/Kg sodium salt of absorption accelerator were orally administered to male beagles of 6- to 8-month age fasted for 18 hours. In this test, the same two dogs were used for each of test samples.
A blood sample was taken from each dog at definite intervals from the peripheral vein in a paw, the amount of glucose in the serum was measured, and the average of two head was calculated. The result is sumarized in the figure.

[2] = Activity test using mice: oral insulin co-administered with absorption accelerator, blood glucose and blood insulin measured; format: in vivo, female ICR-CDI mice; details: insulin 0.5 U/10 g + absorption accelerator 3 mg/10 g, vs control group
Description: Each of the absorption accelerators prepared above was suspended in 0.5% CMC/0.05M Tris-HCl buffer ( pH 7.8 ), insulin was admixed to this suspension, and the resulting mixture was orally administered to a group of female ICR-CDI mice ( five head of 5- to 7-week age ) fasted for 18 hours ( insulin: 0.5 U/10 g, absorption accelerator: 3 mg/10 g ). The rate of reduction in blood glucose (%) and the factor of increase in the insuline level in the blood, in comparison with the data of the control group, were measured at definite intervals.

| SMILES | Number of living mice (male ICR mice; 1.0 g/Kg oral) | Number of living mice (male ICR mice; 3.0 g/Kg oral) | effect of reducing the glucose level in the serum [1] | LD₅₀ values (male ICR mice) | Factor of increase in blood-insulin level ([2]; 15 minutes) | Rate of reduction in blood glucose level ([2]; 15 minutes) | Factor of increase in blood-insulin level ([2]; 30 minutes) | Rate of reduction in blood glucose level ([2]; 30 minutes) | Rate of reduction in blood glucose level ([2]; 60 minutes) | Factor of increase in blood-insulin level ([2]; 60 minutes, "-" = no increase in blood insulin level was observed) |
| --- | --- | --- | --- | --- | --- | --- | --- | --- | --- | --- |
| Cc1ccc(C=C(F)C(=O)N[C@@H](Cc2ccccc2)C(=O)O)cc1 [N-(α-fluoro-4-methylcinnamoyl)-L-phenylalanine, reference compound] | 10 | 6 |  |  |  |  |  |  |  |  |
| Cc1ccc(C(Cl)=CC(=O)N[C@H](Cc2ccccc2)C(=O)O)cc1 [N-(β-chloro-4-methylcinnamoyl)-D-phenylalanine] | 10 | 6 | far higher effect of reducing the glucose level in the serum over longer periods | equal to, or higher than, that of the known absorption accelerator | 2) 2.1 | 1) 35.7% | 2) 3.3 | 1) 47.8% | 1) 42.8% |  |
| Cc1ccc(C(Cl)=CC(=O)N[C@@H](Cc2ccccc2)C(=O)O)cc1 [N-(β-chloro-4-methylcinnamoyl)-L-phenylalanine] | 10 | 10 | far higher effect of reducing the glucose level in the serum over longer periods | equal to, or higher than, that of the known absorption accelerator | 2) 10.5 | 1) 42.1% | 2) 2.0 | 1) 21.6% | 1) 12.2% | 2) 2.1 |
